According to patent US5294713A, “2-piperazinone compounds and their use” (Takeda Chemical Industries, Ltd., priority 1991, dated 1994):

Assays:
[1] = test system: guinea pig platelet aggregation; experiment: Inhibitory action on guinea pig platelet aggregation (ADP-stimulated PRP); type: cell-based; conditions: Cavia porcellus, ADP final concentration 1 μM, in vitro, read-out: Inhibitory effect on platelet aggregation in vitro (IC50) guinea pig
Experimental: TEST EXAMPLE 1 [I] Inhibitory action on guinea pig platelet aggregation
Blood was collected in 3.15% sodium citrate (1 ml for 9 ml of blood) by cardiac puncture from male guinea pig. The blood was centrifuged at 1000 g for 3 to 5 seconds at room temperature to obtain platelet rich plasma (PRP). The PRP was further centrifuged at 1000 g for 10 minutes to obtain platelet poor plasma (PPP). The number of platelets was measured using an automatic blood cell counter (Sysmex E2500, Toaiyou-densi). The platelet density of PRP was adjusted to 400,000/μl with PPP. Platelet aggregation was measured using an 8-channel aggregometer (NBS HEMA TRACER VI Niko Bioscience Inc.). The PRP (250 μl ) was preincubated at 37° C. for 2 minutes. and then incubated for 2 minutes. with 25 μl of physiological saline or various concentrations of test drugs followed by stimulation with ADP (final concentration: 1 μM). By comparing the maximum aggregation rates of the control and those of test drugs, the inhibitory rates were determined. The results are shown in [Table 1]-[Table 3].

[2] = test system: human platelet aggregation; experiment: Inhibitory action on human platelet aggregation (ADP-stimulated PRP); type: cell-based; conditions: ADP final concentration 3 μM, in vitro, read-out: Inhibitory effect on platelet aggregation in vitro (IC50) man
Experimental: [II] Inhibitory action on human platelet aggregation
Human blood was collected in 3.8% sodium citrate (1 ml for 9 ml of blood) by venipuncture from healthy male volunteers. The blood was centrifuged at 1000 g for 3 to 5 seconds at room temperature to obtain platelet rich plasma (PRP). The PRP was further centrifuged at 1000 g for 10 minutes to obtain platelet poor plasma (PPP). The number of platelets was measured using an automatic blood cell counter (Sysmex E2500, Toaiyou-densi). The platelet density of PRP was adjusted to 300,000/μl with PPP. Platelet aggregation was measured using an 8-channel aggregometer (NBS HEMA TRACER VI Niko Bioscience Inc.). The PRP (250 μl) was preincubated at 37° C. for 2 minutes. and then incubated for 2 minutes. with 25 μl of physiological saline or various concentrations of test drugs followed by stimulation with ADP (final concentration: 3 μM). By comparing the maximum aggregation rates of the control and those of test drugs, the inhibitory rates were determined. The results are shown in [Table 1]-[Table 3].

GPIIb/IIIa = target: T1, GPIIb/IIIa (Homo sapiens, UniProt P05106+P08514); experiment: Inhibition of fibrinogen binding to GPIIb/IIIa; conditions: purified GPIIb/IIIa from HEL cells, biotinylated human fibrinogen 1 nM
T1 construct: Purification of GPIIb/IIIa from HEL Cells; endogenous in cells; host or cells: HEL cells (HEL 92.1.7; ATCC TIB180), human erythroleukemia; GPIIb/IIIa solubilized in Triton X-100, purified and adsorbed on microtiter plates
Experimental: (1) Cultibation of Cells Derived from Human Erythroleukemia (Hereinafter Referred to as HEL Cells)
HEL cells (HEL 92. 1. 7; ATCC No. TIB180) were purchased from ATCC (Rockville, Md., U.S.A.). The cells were grown in RPMI medium containing 40 mM N-2-hydroxyethylpiperazin-N'-2-ethanesulfonic acid (hereinafter referred to as HEPES) (pH 7.0), 100 μg/ml of Kanamycin and 10% FCS (GIBCO Laboratories, Grand Island, N.Y., U.S.A.). Cultivation was conducted at 37° C in the presence of 5% CO2.
(2) Purification of GPIIb/IIIa from HEL Cells
Purification of GPIIb/IIIa was performed using the following modification of the method of L. A. Fitzgerald et al. [J. Biol. Chem., 262, 3936 (1987)]. The purification was conducted at room temperature unless specifically mentioned. From 7 L of the culture broth on 7th day of the cultibation (floating cells), the cells were collected by centrifugation (1,000×g, 10 minutes, 4° C.), which were washed with 20 mM Tris-HCl(pH 7.5) containing 1 mM EDTA and 150 mM NaCl. The cells were suspended in 80 ml of a solubilized buffer [20 mM Tris-HCl, 150 mM NaCl, 1% Triton X-100, 1 mM MgCl2, 1 mM CaCl2, 0.1 mM (p-amidinophenyl)methanesulfonyl fluoride (hereinafter referred to as APMSF), 10 nM leupeptin, 0.02% NaN3, pH 7.4)].
The cell suspension was gently mixed for 30 minutes at 4° C. to solubilize GPIIb/IIIa. The suspension was subjected to centrigugation (100,000×g, one hour) at 4° C. to remove cell debris to obtain a cell-extraction solution (60 ml). […] The fraction which passed through the column was charged on the ConA-Sepharose column (Pharmacia LKB, .phi. 1.0×15 cm, 20 ml/hr) to allow GPIIb/IIIa to be adsorbed thereon, then GPIIb/IIIa was eluted with column buffer solution containing 0.5 M methyl α-D-mannopyranoside. The eluate thus obtained was allowed to pass through the DEAE-Toyopearl 650 M column (Tosoh, .phi. 1.6×10.5 cm, 20 ml/hr) equilibrated with the same column buffer to remove contaminating proteins.
(3) Biotinylation of Human Fibrinogen
Biotinylation of human fibrinogen was performed by the following procedure [I. F. Charo et al., J. Biol. Chem., 266, 1415 (1991)]. Human fibrinogen (Kabi Vitrum AB, Stockholm, Sweden) was dissolved in PBS so as to make its concentration 5 mg/ml. The solution was dialyzed overnight at 4° C. against 1 L of 0.1 M NaHCO3 -0.1 M NaCl (pH 8.2). Insolubles were then removed by centrifugation (100,000×g, 30 minutes), and the solution was diluted with the same buffer to the protein concentration of 1 mg/ml. To thus-diluted solution was added powdery sulfo-N-hydroxysuccinimidobiotin (Pierce Chemical Co., Rockford, Ill., U.S.A.) so as to make its final concentration 0.2 mg/ml and gently mixed to perform biotinylate fibrinogen. The resultant was subjected to dialysis against 50 mM Tris-HCl (pH 7.4) - 100 mM NaCl-0.05% NaN3. The dialysate was distributed and stored at 4° C.
(4) Inhibition Assay for Fibrinogen Binding to GPIIb/IIIa
This experiment was performed using a modification of the method described in the above-mentioned I. F. Charo et al. report. The purified GPIIb/IIIa was diluted with the buffer A (20 mM Tris-HCl, 150 mM NaCl, 1 mM CaCl2, 0.02% NaN3, pH 7.4) to a concentration of 1 μg/ml. The diluted solution was added to 96-well microtiter plates (MaxiSorp; Nunc, Denmark) at 100 μl per well, which were left standing at 4° C. overnight to allow GPIIb/IIIa to be adsorbed on the microplates. The plate was aspirated, and then 150 μl of the buffer B (35 mg/ml BSA, 50 mM Tris-HCl, 100 mM NaCl, 2 mM CaCl2, 0.02%, NaN3, pH 7.4) was added to the plate, and blocking was performed at 30° C. for 2 hours. The plate was washed twice with 250 μl each of the buffer C (1 mg/ml BSA, 50mM Tris-HCl, 100 mM NaCl, 2 mM CaCl2, pH 7.4).

T1 sequence (P08514 32-887 limits assumed): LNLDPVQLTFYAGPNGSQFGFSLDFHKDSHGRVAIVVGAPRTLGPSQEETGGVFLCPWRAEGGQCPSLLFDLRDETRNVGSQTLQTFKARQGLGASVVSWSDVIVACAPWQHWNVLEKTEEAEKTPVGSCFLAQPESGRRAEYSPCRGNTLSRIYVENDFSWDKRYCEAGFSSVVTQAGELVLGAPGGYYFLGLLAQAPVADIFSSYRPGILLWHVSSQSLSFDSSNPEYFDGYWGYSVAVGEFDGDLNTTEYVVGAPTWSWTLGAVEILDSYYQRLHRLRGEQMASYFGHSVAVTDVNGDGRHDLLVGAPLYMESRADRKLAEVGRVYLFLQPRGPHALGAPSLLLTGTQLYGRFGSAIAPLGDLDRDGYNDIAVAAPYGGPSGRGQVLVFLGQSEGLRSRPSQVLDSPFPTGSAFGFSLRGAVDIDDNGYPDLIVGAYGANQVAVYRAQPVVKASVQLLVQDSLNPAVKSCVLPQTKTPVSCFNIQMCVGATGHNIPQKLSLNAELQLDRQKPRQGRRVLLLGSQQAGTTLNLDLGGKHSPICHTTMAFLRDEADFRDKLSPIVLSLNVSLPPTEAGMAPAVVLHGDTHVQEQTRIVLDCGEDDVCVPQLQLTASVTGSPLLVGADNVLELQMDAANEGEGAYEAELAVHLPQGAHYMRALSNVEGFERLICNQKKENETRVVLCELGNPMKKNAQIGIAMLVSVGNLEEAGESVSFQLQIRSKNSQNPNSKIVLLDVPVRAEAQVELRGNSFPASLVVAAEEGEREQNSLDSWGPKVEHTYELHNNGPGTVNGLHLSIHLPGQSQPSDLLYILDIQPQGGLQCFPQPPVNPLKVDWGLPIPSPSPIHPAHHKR
T1 sequence (P08514 891-1039 limits assumed): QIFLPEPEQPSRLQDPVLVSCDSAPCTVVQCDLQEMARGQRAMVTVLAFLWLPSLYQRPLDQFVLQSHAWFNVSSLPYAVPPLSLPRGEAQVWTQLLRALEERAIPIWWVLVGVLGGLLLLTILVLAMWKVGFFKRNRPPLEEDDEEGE
T1 sequence (P05106 27-788): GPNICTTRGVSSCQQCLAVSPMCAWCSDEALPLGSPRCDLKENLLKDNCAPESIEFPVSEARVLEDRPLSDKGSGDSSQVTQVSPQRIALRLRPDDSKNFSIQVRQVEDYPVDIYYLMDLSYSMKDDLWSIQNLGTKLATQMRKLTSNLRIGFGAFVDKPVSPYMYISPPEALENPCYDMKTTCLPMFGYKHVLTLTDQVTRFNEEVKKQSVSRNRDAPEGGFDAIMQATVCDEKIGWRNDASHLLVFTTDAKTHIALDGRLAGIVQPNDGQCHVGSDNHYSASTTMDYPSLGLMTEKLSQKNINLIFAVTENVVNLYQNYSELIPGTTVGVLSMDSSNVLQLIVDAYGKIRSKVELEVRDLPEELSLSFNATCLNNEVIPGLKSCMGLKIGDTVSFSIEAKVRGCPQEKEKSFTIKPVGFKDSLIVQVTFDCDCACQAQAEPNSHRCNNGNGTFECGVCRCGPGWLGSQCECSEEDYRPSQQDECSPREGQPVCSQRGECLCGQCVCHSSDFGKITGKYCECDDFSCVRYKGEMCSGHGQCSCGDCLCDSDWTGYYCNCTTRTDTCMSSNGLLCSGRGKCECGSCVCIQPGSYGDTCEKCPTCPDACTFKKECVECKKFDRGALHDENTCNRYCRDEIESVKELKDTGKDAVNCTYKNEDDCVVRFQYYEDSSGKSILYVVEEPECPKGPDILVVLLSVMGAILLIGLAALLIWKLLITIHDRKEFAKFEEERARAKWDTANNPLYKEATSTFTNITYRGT

| SMILES | IC50 [1] [nM] | IC50 [2] [nM] | IC50 (GPIIb/IIIa) [nM] |
| --- | --- | --- | --- |
| C[C@@H](C(=O)O)N1CCN(C(=O)CNC(=O)c2ccc(C(=N)N)cc2)[C@@H](CC(=O)O)C1=O [compound 69] | 1500 | 1600 | 19 |
| N=C(N)c1ccc(C(=O)NCC(=O)N2CCN(CC(=O)O)C(=O)[C@@H]2CC(N)=O)cc1 [compound 71] | 110 | 74 | 0.92 |
| NCCc1ccc(C(=O)NCC(=O)N2CCN(CC(=O)O)C(=O)[C@@H]2CCC(=O)O)cc1 [compound 76] | 110 | 150 | 1 |
| CN(C)CCc1ccc(C(=O)NCC(=O)N2CCN(CC(=O)O)C(=O)[C@@H]2CCC(=O)O)cc1 [compound 77] | 2500 | 4700 | 45 |
| COC(=O)CC[C@H]1C(=O)N(CC(=O)O)CCN1C(=O)CNC(=O)c1ccc(CCN)cc1 [compound 80] | 120 | 110 | 0.89 |
| NCCc1ccc(C(=O)NCC(=O)N2CCN(CC(=O)O)C(=O)[C@@H]2CCC(N)=O)cc1 [compound 84] | 110 | 120 | 1 |
| CN(C)CCc1ccc(C(=O)NCC(=O)N2CCN(CC(=O)O)C(=O)[C@@H]2CCC(N)=O)cc1 [compound 85] | 4100 | 5600 | 32 |
| NCCc1ccc(C(=O)NCC(=O)N2CCN(CC(=O)O)C(=O)C2)cc1 [compound 87] | 150 | 180 | 1.6 |
| NCCc1ccc(C(=O)NCC(=O)N2CCN(CC(=O)O)C(=O)[C@@H]2CC(N)=O)cc1 [compound 88] | 84 | 140 | 2.3 |
| NCCc1ccc(C(=O)NCC(=O)N2CCN(CC(=O)O)C(=O)[C@@H]2Cc2ccccc2)cc1 [compound 89] | 200 | 380 | 3.6 |
